Laboratory results from the NIST ThermoML archive (doi:10.1021/je0604378).

Conditions: Liquid; for speed of sound: Pulse-echo method; for mass density: 101.33 kPa

CCCCCCCCO [octan-1-ol]
Conditions	speed of sound [m/s]
292.77 K, 15230 kPa	1440.3
292.77 K, 30430 kPa	1505.2
292.77 K, 76010 kPa	1670.1
292.78 K, 60800 kPa	1619.3
292.79 K, 91200 kPa	1717.8
292.83 K, 45610 kPa	1564.1
292.83 K, 96120 kPa	1733
292.92 K, 100 kPa	1365.2
298.07 K, 76040 kPa	1656.5
298.07 K, 91190 kPa	1703.9
298.07 K, 97840 kPa	1724.3
298.09 K, 45610 kPa	1548.8
298.09 K, 60840 kPa	1604.6
298.13 K, 30410 kPa	1488.8
298.19 K, 15200 kPa	1422.6
298.2 K, 100 kPa	1347.1
303.15 K, 76000 kPa	1642.8
303.16 K, 91200 kPa	1691.2
303.18 K, 100 kPa	1330.2
303.2 K, 101340 kPa	1722.3
303.26 K, 60820 kPa	1590.2
303.27 K, 15200 kPa	1406.2
303.27 K, 45600 kPa	1533.9
303.28 K, 30410 kPa	1473.3
308.12 K, 91200 kPa	1679.2
308.12 K, 101320 kPa	1710.3
308.16 K, 100 kPa	1313.3
308.16 K, 91210 kPa	1679.1
308.17 K, 30400 kPa	1458.8
308.17 K, 76020 kPa	1630
308.18 K, 45600 kPa	1520.3
308.18 K, 60790 kPa	1576.8
308.19 K, 15210 kPa	1390.7
313.15 K, 100 kPa	1296.5
313.22 K, 91200 kPa	1666.8
313.22 K, 101340 kPa	1697.8
313.23 K, 76000 kPa	1616.6
313.26 K, 15200 kPa	1375.1
313.26 K, 30390 kPa	1443.9
313.26 K, 45590 kPa	1506.1
313.28 K, 60790 kPa	1563.5
318.33 K, 100 kPa	1279.2
318.82 K, 45600 kPa	1491
318.82 K, 60790 kPa	1549.2
318.82 K, 75990 kPa	1603.4
318.82 K, 101330 kPa	1684.9
318.83 K, 15200 kPa	1357.8
318.83 K, 91180 kPa	1653.7
318.84 K, 30390 kPa	1427.8

Conditions	mass density [kg/m3]
293.15 K	825.048
298.15 K	821.636
303.15 K	818.173
308.15 K	814.675
313.15 K	811.171
318.15 K	807.654

CCCCCCCCCCO [decan-1-ol]
Conditions	speed of sound [m/s]
292.86 K, 60790 kPa	1646.3
292.9 K, 30390 kPa	1533.8
292.91 K, 15200 kPa	1470.6
292.96 K, 45590 kPa	1592
293.1 K, 100 kPa	1397.2
297.95 K, 15200 kPa	1453.8
297.95 K, 66240 kPa	1649.8
297.96 K, 30390 kPa	1518
297.96 K, 60790 kPa	1631.4
297.96 K, 69300 kPa	1660
297.98 K, 45590 kPa	1576.8
297.99 K, 71850 kPa	1668.2
297.99 K, 73520 kPa	1673.6
297.99 K, 74700 kPa	1677.6
298 K, 75990 kPa	1681.7
298.07 K, 100 kPa	1380
302.92 K, 15200 kPa	1436.8
303.02 K, 60790 kPa	1617
303.03 K, 66240 kPa	1635.7
303.03 K, 71560 kPa	1653.5
303.04 K, 100 kPa	1362.8
303.04 K, 73600 kPa	1660.2
303.05 K, 69230 kPa	1645.7
303.08 K, 30390 kPa	1501.5
303.09 K, 75990 kPa	1667.8
303.11 K, 45590 kPa	1561
303.15 K, 74790 kPa	1664.1
307.92 K, 75990 kPa	1655.1
307.93 K, 74720 kPa	1650.9
307.94 K, 73310 kPa	1646.2
307.95 K, 65860 kPa	1620.9
307.96 K, 60790 kPa	1603.1
307.96 K, 68850 kPa	1631.3
307.96 K, 71380 kPa	1639.8
307.97 K, 30390 kPa	1486.6
307.98 K, 45590 kPa	1546.9
308.04 K, 100 kPa	1345.8
308.09 K, 15200 kPa	1420
313 K, 60790 kPa	1589.4
313 K, 65980 kPa	1607.8
313 K, 69200 kPa	1618.9
313.01 K, 100 kPa	1329
313.01 K, 45590 kPa	1532.5
313.03 K, 30390 kPa	1471.9
313.03 K, 72900 kPa	1631.5
313.04 K, 75990 kPa	1641.7
313.06 K, 15200 kPa	1404.5
318.18 K, 100 kPa	1311.7
318.36 K, 15200 kPa	1387.7
318.4 K, 65950 kPa	1593.7
318.41 K, 60790 kPa	1575.1
318.43 K, 72660 kPa	1617
318.43 K, 73870 kPa	1621.1
318.43 K, 75990 kPa	1628.2
318.44 K, 30390 kPa	1456
318.44 K, 45590 kPa	1517.7
318.45 K, 30390 kPa	1455.9

Conditions	mass density [kg/m3]
293.15 K	829.758
298.15 K	826.37
303.15 K	822.95
308.15 K	819.57
313.15 K	816.12
318.15 K	812.634

CCCCCCCO [heptan-1-ol]
Conditions	speed of sound [m/s]
292.76 K, 75990 kPa	1654.2
292.77 K, 30390 kPa	1487.3
292.77 K, 45590 kPa	1546.9
292.77 K, 60790 kPa	1602.6
292.77 K, 91180 kPa	1702
292.77 K, 101320 kPa	1732.7
292.78 K, 15200 kPa	1421.7
292.89 K, 100 kPa	1345.4
298.06 K, 15200 kPa	1404.9
298.06 K, 30390 kPa	1471.8
298.06 K, 45590 kPa	1532.3
298.06 K, 60790 kPa	1588.2
298.06 K, 75990 kPa	1640.4
298.06 K, 91180 kPa	1688.9
298.06 K, 101320 kPa	1719.6
298.17 K, 100 kPa	1327.2
302.94 K, 15200 kPa	1389.5
302.94 K, 30390 kPa	1457.3
302.94 K, 45590 kPa	1518.7
302.94 K, 60790 kPa	1575.3
302.94 K, 91180 kPa	1677
302.94 K, 101320 kPa	1708
302.95 K, 75990 kPa	1628
303.14 K, 100 kPa	1310.2
307.93 K, 60790 kPa	1561.9
307.93 K, 91180 kPa	1664.8
307.94 K, 15200 kPa	1374
307.94 K, 30390 kPa	1442.8
307.94 K, 45590 kPa	1505
307.94 K, 75990 kPa	1615.5
307.94 K, 101320 kPa	1696
308.12 K, 100 kPa	1293.2
312.9 K, 30390 kPa	1428.7
312.9 K, 45590 kPa	1491.6
312.9 K, 60790 kPa	1549.1
312.9 K, 75990 kPa	1603.1
312.9 K, 91180 kPa	1653
312.91 K, 15200 kPa	1358.9
312.91 K, 101320 kPa	1684.7
313.09 K, 100 kPa	1276.3
318.29 K, 30390 kPa	1413.6
318.29 K, 45590 kPa	1477.5
318.29 K, 60790 kPa	1535.5
318.29 K, 75990 kPa	1590
318.29 K, 91180 kPa	1640.6
318.29 K, 101320 kPa	1672.4
318.3 K, 15200 kPa	1342.8
318.37 K, 100 kPa	1258.6

Conditions	mass density [kg/m3]
293.15 K	822.297
298.15 K	818.796
303.15 K	815.269
308.15 K	811.724
313.15 K	808.158
318.15 K	804.546

CCCCCCCCCO [nonan-1-ol]
Conditions	speed of sound [m/s]
292.86 K, 45590 kPa	1579.5
292.86 K, 91180 kPa	1731.8
292.86 K, 101320 kPa	1762
292.87 K, 15200 kPa	1456.7
292.87 K, 30390 kPa	1520.8
292.87 K, 60790 kPa	1634
292.87 K, 75990 kPa	1684.4
292.88 K, 100 kPa	1382.8
297.95 K, 60790 kPa	1620
297.95 K, 91180 kPa	1718.7
297.95 K, 101320 kPa	1749.2
297.96 K, 15200 kPa	1440.2
297.96 K, 30390 kPa	1505.4
297.96 K, 45590 kPa	1564.5
297.96 K, 75990 kPa	1670.7
298.18 K, 100 kPa	1364.6
302.93 K, 45590 kPa	1550.1
302.93 K, 60790 kPa	1606
302.93 K, 75990 kPa	1657.6
302.93 K, 91180 kPa	1705.8
302.93 K, 101320 kPa	1736.7
302.94 K, 15200 kPa	1424.3
302.94 K, 30390 kPa	1490.2
303.16 K, 100 kPa	1347.5
307.91 K, 30390 kPa	1475.5
307.91 K, 45590 kPa	1536
307.91 K, 60790 kPa	1592.4
307.92 K, 15200 kPa	1408.5
307.92 K, 75990 kPa	1644.7
307.92 K, 91180 kPa	1693.2
307.92 K, 101320 kPa	1724.3
308.14 K, 100 kPa	1330.6
312.91 K, 15200 kPa	1392.8
312.91 K, 30390 kPa	1460.8
312.91 K, 45590 kPa	1522.2
312.91 K, 60790 kPa	1578.9
312.91 K, 75990 kPa	1632
312.91 K, 91180 kPa	1681.1
312.91 K, 101320 kPa	1712.3
313.11 K, 100 kPa	1313.8
318.29 K, 100 kPa	1296.3
318.38 K, 45590 kPa	1507.3
318.38 K, 60790 kPa	1564.6
318.38 K, 75990 kPa	1618.3
318.38 K, 91180 kPa	1667.8
318.38 K, 101320 kPa	1699.1
318.39 K, 15200 kPa	1375.9
318.39 K, 30390 kPa	1444.8
318.39 K, 45590 kPa	1507.3
318.39 K, 91180 kPa	1667.8

Conditions	mass density [kg/m3]
293.15 K	827.66
298.15 K	824.239
303.16 K	820.8
308.15 K	817.345
313.15 K	813.868
318.15 K	810.376
